In US20260226069A1, “GCN2 AND PERK KINASE MODULATORS AND METHODS OF USE THEREOF” (Deciphera Pharmaceuticals, LLC, priority 2023, published 2026):

Assays:
[1] = tested on: ATF4 in Thapsigargin stimulated CCRF-CEM cells; assay: CCRF-CEM TG ATF4 ELISA, phenotypic assay for cellular inhibition of PERK preactivated by thapsigargin; format: cell-based; settings: Homo sapiens, 3 h, compound three hours then 1 μM thapsigargin for an additional hour
Method: CCRF-CEM TG ATF4 ELISA, a Phenotypic Assay for Cellular Inhibition of PERK Preactivated by Thapsigargin (TG)
CCRF-CEM leukemia cells (catalog #CCL-116) were obtained from the American Type Culture Collection (ATTC, Manassas, VA). Briefly, cells were grown in RPMI-1640 medium supplemented with 10% heat-inactivated fetal bovine serum (Invitrogen, Carlsbad, CA) and 1% Penicillin/Streptomycin/L-Glutamine at 37° C., 5% CO2, and 95% humidity. Cells were expanded until reaching one million cells per mL at which time they were subcultured or harvested for assay use. One million five hundred thousand cells per well in 1 mL complete growth medium were dispensed into 12-well plates and incubated overnight. A serial dilution of test compound was added and cells were incubated at 37° C., 5% CO2, and 95% for three hours, then 1 μM thapsigargin was added and cells were incubated for an additional hour at 37° C., 5% CO2, and 95%. Cells were lysed then ATF4 levels were measured using an ELISA assay (Proteintech, Rosemont, IL). Absorbance was measured at 450 nm and 544 nM using a Synergy2 or equivalent reader (Biotek, Winooski VT). Data was analyzed using PRISM software (Graphpad, San Diego, CA) to calculate IC50 values.

[2] = tested on: ATF4 in H929 Multiple Myeloma cells; assay: H929 ATF4 ELISA assay; format: cell-based; settings: four hours, fold stimulation of cellular ATF4 relative to vehicle treated control
Method: H929 multiple myeloma cells (catalog #CRL-9068) were obtained from the American Type Culture Collection (ATTC, Manassas, VA). Briefly, cells were grown in RPMI-1640 medium supplemented with 20% heat-inactivated fetal bovine serum (catalog #A3840002, ThermoFisher Scientific, Waltham, MA), 1% Penicillin/Streptomycin/L-Glutamine (catalog #10378016, ThermoFisher Scientific, Waltham, MA), and 0.05 mM 2-mercaptoethanol (catalog #21985-023, ThermoFisher Scientific, Waltham, MA) at 37° C., 5% CO2, and 95% humidity. Cells were expanded until reaching one million five hundred thousand cells per mL at which time they were sub-cultured or harvested for assay use. One million five hundred thousand cells per well in 1 mL complete growth medium were dispensed into 12-well plates and incubated overnight. A serial dilution of test compound was added, and cells were incubated at 37° C., 5% CO2, and 95% for four hours. Cells were lysed then ATF4 levels were measured using an ELISA assay (Proteintech, Rosemont, IL). Absorbance is measured at 450 nm and 544 nM using a Synergy2 or equivalent reader (Biotek, Winooski VT). Data were analyzed using PRISM software (Graphpad, San Diego, CA) to calculate fold stimulation of cellular ATF4 relative to vehicle treated control.

[3] = tested on: ASNase treated CCRF-CEM cells; assay: CCRF-CEM ASNase cell proliferation assay, phenotypic assay for cellular inhibition of GCN2; format: cell-based; settings: Homo sapiens, 1 mU/mL ASNase, 72 h, resazurin
Method: CCRF-CEM ASNase Cell Proliferation Assay, a Phenotypic Assay for Cellular Inhibition of GCN2.
CCRF-CEM leukemia cells (catalog #CCL-116) were obtained from the American Type Culture Collect (ATTC, Manassas, VA). Cells were grown in RPMI-1640 medium supplemented with 10% heat-inactivated fetal bovine serum (Invitrogen, Carlsbad, CA) and 1% Penicillin/Streptomycin/L-Glutamine at 37° C., 5% CO2, and 95% humidity. Cells were expanded until reaching one million cells per mL at which time they are subcultured or harvested for assay use. Ten thousand cells per well in 200 μL RPMI-1640 supplemented with 10% heat-inactivated fetal bovine serum and 1% Penicillin/Streptomycin were dispensed into a 96-well black clear bottom plate. A serial dilution of test compound and 1 mU/mL ASNase was added in triplicate and plates were incubated for 72 h at 37° C., 5% CO2, and 95% humidity. At the end of the incubation, 40 μL of a […] solution of resazurin (Sigma, St. Louis, MO) in PBS was added to each well of the plate and plates were incubated for an additional 6 h at 37° C., 5% CO2, and 95% humidity. Plates were read on a Synergy2 or equivalent reader (Biotek, Winooski VT) using an excitation of 540 nm and an emission of 600 nm. Data was analyzed using GraphPad Prism software (GraphPad, San Diego, CA) to calculate IC50 values.

PERK kinase = target: T1, PERK kinase (Homo sapiens, UniProt Q9NZJ5, A704S); assay: Biochemical assay for PERK (coupled pyruvate kinase/lactate dehydrogenase assay); settings: 10 nM PERK, 1 mM ATP, reaction rate 2-3 h time frame, 30° C.
T1 construct: GST (with thrombin site LVPRGS); purchased Beryllium
T1 sequence (Q9NZJ5 with tags, fused parts or gaps A704S): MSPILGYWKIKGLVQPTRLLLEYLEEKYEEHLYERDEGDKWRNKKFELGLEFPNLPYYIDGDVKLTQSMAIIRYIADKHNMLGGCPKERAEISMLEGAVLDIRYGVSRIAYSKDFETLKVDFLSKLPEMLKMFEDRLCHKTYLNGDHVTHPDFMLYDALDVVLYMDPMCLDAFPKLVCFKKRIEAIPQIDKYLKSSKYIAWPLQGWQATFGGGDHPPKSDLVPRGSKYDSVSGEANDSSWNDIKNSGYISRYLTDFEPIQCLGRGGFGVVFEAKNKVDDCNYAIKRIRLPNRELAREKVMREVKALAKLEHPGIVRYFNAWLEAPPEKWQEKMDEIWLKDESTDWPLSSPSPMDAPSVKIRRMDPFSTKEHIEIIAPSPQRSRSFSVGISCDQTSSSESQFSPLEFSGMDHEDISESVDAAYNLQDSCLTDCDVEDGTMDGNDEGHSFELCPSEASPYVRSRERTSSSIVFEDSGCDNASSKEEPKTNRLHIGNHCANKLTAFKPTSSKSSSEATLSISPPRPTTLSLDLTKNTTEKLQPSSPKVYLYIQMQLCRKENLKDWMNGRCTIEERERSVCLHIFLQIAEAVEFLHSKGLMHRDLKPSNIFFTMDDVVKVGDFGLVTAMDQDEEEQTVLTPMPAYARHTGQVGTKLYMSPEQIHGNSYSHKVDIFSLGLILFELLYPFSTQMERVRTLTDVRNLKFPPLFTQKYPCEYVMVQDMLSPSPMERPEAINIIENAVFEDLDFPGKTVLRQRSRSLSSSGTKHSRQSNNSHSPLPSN
Method: Biochemical Assay for PERK
Activity of PERK kinase was determined spectroscopically using a coupled pyruvate kinase/lactate dehydrogenase assay that continuously monitors the ATP hydrolysis-dependent oxidation of NADH (Science, 2000, 289, 1938-1942). Assays were conducted in 384-well plates (100 μL final volume) using 10 nM PERK (from Beryllium), 0.25 mg/mL Myelin Basic Protein substrate, 1.5 units pyruvate kinase, 2.1 units lactate dehydrogenase, 1 mM phosphoenol pyruvate, 0.28 mM NADH and 1 mM ATP in assay buffer (100 mM Tris, pH 7.5, 15 mM MgCl2, 0.5 mM DTT, 0.004% (w/v) BSA, and 0.004% Triton X-100). Inhibition of PERK was measured by adding serial diluted test compound (final assay concentration of 1% DMSO). A decrease in absorption at 340 nm was monitored continuously for 6 hours at 30° C. on a multi-mode microplate reader (BioTek). The reaction rate was calculated using the 2-3 h time frame. The reaction rate at each concentration of compound was converted to percent inhibition using controls (i.e., reaction with no test compound and reaction with a known inhibitor) and IC50 values were calculated using software routines in Prism (GraphPad software).

GCN2 kinase = target: T2, GCN2 kinase (Homo sapiens, UniProt Q9P2K8); assay: Biochemical assay for GCN2 (TR-FRET kinase activity assay); settings: 2 nM GCN2, 1 mM ATP, 3-hour incubation
T2 construct: G556E with a; purchased Carna Biosciences
Method: Biochemical assay for GCN2
Activity of GCN2 kinase was determined using a TR-FRET kinase activity assay (e.g., Analytical Biochemistry, 2006, 356, 108-116). Assays were conducted in 384-well plates (13 μL assay volume) using 2 nM GCN2 (Carna Biosciences), 130 nM GFP-EIf2α (Invitrogen), 0.2 mg/mL E. coli tRNA (sigma) and 1 mM ATP in kinase buffer (Invitrogen). Inhibition of GCN2 was measured by adding serial diluted test compound (final assay concentration of 0.5% DMSO) followed by a 3-hour incubation. Tb-peIF2α (pSer52) antibody (Invitrogen) (2 nM final assay concentration) in kinase buffer containing EDTA (final assay concentration of 20 mM) was added. After a 60 min incubation at room temperature, TR-FRET was monitored using an excitation wavelength of 340 nm and emission wavelengths of 490 nm and 520 nm. The emission ratio (520/490) at each compound concentration of was converted to percent inhibition using controls (i.e., reaction with no test compound and reaction with a known inhibitor) and IC50 values were calculated by fitting a four-parameter sigmoidal curve to the data using Prism (GraphPad software).

SMILES | IC50 [1] [nM] | H929 NS ATF4 ELISA [2] | IC50 [3] [nM] | IC50 (PERK kinase) [nM] | IC50 (GCN2 kinase) [nM]
Nc1nccn2c(C3CC3)nc(-c3cccc(NS(=O)(=O)c4cc(Cl)cc(CO)c4Cl)c3F)c12 [Example 14] | 100 to 500 | ++ (an ATF4 stim greater than 5-fold and less than or equal to 10-fold) | ≤ 100 | ≤ 100 | ≤ 100
CC(C)(C)c1nc(-c2cccc(NS(=O)(=O)c3cc(Cl)cc(CO)c3Cl)c2F)c2c(N)nccn12 [Example 9] | 100 to 500 | +++ (an ATF4 stim greater than 10-fold and less than or equal to 20-fold) | 100 to 500 | ≤ 100 | 100 to 500
Cc1cc(-c2cccc(NS(=O)(=O)c3cc(Cl)cc(CO)c3Cl)c2F)c2c(N)ncnn12 [Example 13] | 100 to 500 | +++ (an ATF4 stim greater than 10-fold and less than or equal to 20-fold) | 100 to 500 | ≤ 100 | 100 to 500
Nc1nccn2c(-c3ccccc3)nc(-c3cccc(NS(=O)(=O)c4cc(Cl)cc(CO)c4Cl)c3F)c12 [Example 12] | 500 to 1000 | ++++ (an ATF4 stim greater than 20-fold) | 100 to 500 | ≤ 100 | ≤ 100
NC(=O)c1cc(-c2cccc(NS(=O)(=O)c3cc(Cl)cc(CO)c3Cl)c2F)c2c(N)ncnn12 [Example 18] | 500 to 1000 | ++ (an ATF4 stim greater than 5-fold and less than or equal to 10-fold) | 100 to 500 | ≤ 100 | ≤ 100
Cc1nc(-c2cccc(NS(=O)(=O)c3cc(Cl)cc(CO)c3Cl)c2F)c2c(N)nccn12 [Example 2, N-(3-(8-amino-3-methylimidazo[1,5-a]pyrazin-1-yl)-2-fluorophenyl)-2,5-dichloro-3-(hydroxymethyl)benzenesulfonamide] | 100 to 500 | +++ (an ATF4 stim greater than 10-fold and less than or equal to 20-fold) | 100 to 500 | ≤ 100 | 100 to 500
Cn1cc(-c2cccc(NS(=O)(=O)c3cc(F)c(Br)cc3F)c2F)c2c(N)ncnc21 [Example 38] | 100 to 500 | + (an ATF4 stim less than or equal to 5-fold) | 1000 to 10000 | ≤ 100 | 1000 to 10000
CNC(=O)c1nc(-c2cccc(NS(=O)(=O)c3cc(Cl)cc(CO)c3Cl)c2F)c2c(N)nccn12 [Example 22] | 100 to 500 | ++++ (an ATF4 stim greater than 20-fold) | 100 to 500 | ≤ 100 | ≤ 100
CSc1nc(-c2cccc(NS(=O)(=O)c3cc(Cl)cc(CO)c3Cl)c2F)c2c(N)nccn12 [Example 21] | 100 to 500 | +++ (an ATF4 stim greater than 10-fold and less than or equal to 20-fold) | 100 to 500 | ≤ 100 | ≤ 100
CNc1nc(-c2cccc(NS(=O)(=O)c3cc(Cl)cc(CO)c3Cl)c2F)c2c(N)nccn12 [Example 26] | 100 to 500 | ++ (an ATF4 stim greater than 5-fold and less than or equal to 10-fold) | 100 to 500 | ≤ 100 | ≤ 100
Nc1nccn2c(C3CCC3)nc(-c3cccc(NS(=O)(=O)c4cc(Cl)cc(CO)c4Cl)c3F)c12 [Example 17] | 100 to 500 | +++ (an ATF4 stim greater than 10-fold and less than or equal to 20-fold) | 100 to 500 | ≤ 100 | ≤ 100
CC(C)c1nc(-c2cccc(NS(=O)(=O)c3cc(Cl)cc(CO)c3Cl)c2F)c2c(N)nccn12 [Example 16] | 100 to 500 | +++ (an ATF4 stim greater than 10-fold and less than or equal to 20-fold) | ≤ 100 | ≤ 100 | ≤ 100
Cn1cc(-c2nc(-c3cccc(NS(=O)(=O)c4cc(Cl)cc(CO)c4Cl)c3F)c3c(N)nccn23)cn1 [Example 20] | ≤ 100 | ++ (an ATF4 stim greater than 5-fold and less than or equal to 10-fold) | ≤ 100 | ≤ 100 | ≤ 100
COc1ncc(Cl)cc1S(=O)(=O)Nc1cc(F)c(F)c(-c2cn(C)c3ncnc(N)c23)c1 [Example 43] | 1000 to 10000 | + (an ATF4 stim less than or equal to 5-fold) | 1000 to 10000 | ≤ 100 | 1000 to 10000
Cn1cc(-c2cccc(NS(=O)(=O)c3cc(Cl)cc(/C=N\O)c3Cl)c2F)c2c(N)ncnc21 [Example 52, (Z)—N-(3-(4-amino-7-methyl-7H-pyrrolo[2,3-d]pyrimidin-5-yl)-2-fluorophenyl)-2,5-dichloro-3-((hydroxyimino)methyl)benzenesulfonamide] | 100 to 500 | ++++ (an ATF4 stim greater than 20-fold) | 1000 to 10000 | ≤ 100 | 500 to 1000
Nc1ncnn2ccc(-c3cccc(NS(=O)(=O)c4cc(Cl)cc(CO)c4Cl)c3F)c12 [Example 3] | 100 to 500 | ++ (an ATF4 stim greater than 5-fold and less than or equal to 10-fold) | 100 to 500 | ≤ 100 | 100 to 500
Cc1nc(-c2cc(NS(=O)(=O)c3cc(Cl)cc(CO)c3Cl)cc(F)c2F)c2c(N)nccn12 [Example 4] | 1000 to 10000 | + (an ATF4 stim less than or equal to 5-fold) | 1000 to 10000 | ≤ 100 | ≤ 100
